Measured values taken from patent US5684028A, “Sulphorous derivatives of imidazole, their preparation process, the new intermediates obtained, their use as medicaments and the pharmaceutical compositions” (Roussel UCLAF, priority 1990, dated 1997).

Key:
[1] = biological target: T1, angiotensin II receptor (Rattus norvegicus, UniProt P25095); assay: Test on the angiotensin II receptor (displacement of I^125 angiotensin II, rat liver membranes); assay type: binding; conditions: 25° C., 150 minutes, read-out: IC50 (50% inhibiting concentration, displacement of specific radioactivity fixed on the receptor)
T1 construct: A fresh membrane preparation obtained from the liver of a rat is used; from tissue; host or cells: rat liver, fresh membrane preparation
T1 sequence (P25095 1-359): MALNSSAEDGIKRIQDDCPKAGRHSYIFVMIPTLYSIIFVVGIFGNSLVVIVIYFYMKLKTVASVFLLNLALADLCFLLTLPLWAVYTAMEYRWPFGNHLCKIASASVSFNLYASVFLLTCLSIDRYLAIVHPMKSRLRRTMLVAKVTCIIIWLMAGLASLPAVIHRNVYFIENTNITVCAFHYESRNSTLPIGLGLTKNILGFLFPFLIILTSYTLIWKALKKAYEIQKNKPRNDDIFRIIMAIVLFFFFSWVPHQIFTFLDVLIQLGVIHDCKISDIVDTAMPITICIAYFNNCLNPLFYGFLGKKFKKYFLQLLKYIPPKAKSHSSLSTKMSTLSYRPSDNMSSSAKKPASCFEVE
Experimental: 1 - Test on the angiotensin II receptor
A fresh membrane preparation obtained from the liver of a rat is used. The tissue is ground up in a polytron in a Tris 50 mM buffer pH 7.4, the grinding is followed by 3 centrifugations at 30,000 g for 15 minutes, the deposits being taken up in between in the Tris buffer pH 7.4.
The last deposits are put in suspension in an incubation buffer (Tris 20 mM, NaCl 135 mM, […], KCl 10 mM, glucose 5 mM, MgCl2 10 mM PMSF 0.3 mM, bacitracin 0.1 mM, BSA 0.2%).
Aliquoted fractions of 2 ml are divided into hemolysis tubes and I^125 angiotensin II (25,000 DPM per tube) and the product to be studied are added. (The product is first tested at 3×10^-5 M three times). When the tested product displaces by more than 50% the radioactivity linked specifically to the receptor, it is tested again according to a range of 7 doses in order to determine the dose which inhibits by 50% the radioactivity linked specifically to the receptor. In this way the 50% inhibiting concentration is determined.
The non-specific bond is determined by addition of the product of Example 94 of the European Patent 0,253,310, at 10^-5 M (three times). The medium is incubated at 25° C. for 150 minutes, put in a water bath at 0° C. for 5 minutes, filtered under vacuum, rinsed with Tris buffer pH 7.4 and the radioactivity is counted in the presence of scintillating Triton.
The result is expressed directly as the 50% inhibiting concentration (IC50), that is as the concentration of studied product, expressed in nM, necessary to displace 50% of the specific radioactivity fixed on the receptor studied.

[2] = test system: angiotensin II (pressure effects); assay: Test for antagonistic activity of angiotensin II in a demedullated rat; assay type: in vivo; conditions: iv, demedullated male Sprague-Dawley rats, jugular vein injection 5 minutes before angiotensin II (0.75 micrograms/kg), diastolic arterial pressure, read-out: IC50 (dose which inhibits by 50% the pressure effects of angiotensin II)
Experimental: 3 - Test for antagonistic activity of angiotensin II in a demedullated rat
Male Sprague-Dawley rats (250 to 350 g) are anaesthetized by an intra-peritoneal injection of sodium pentobarbital (60 mg/kg). The diastolic arterial pressure is recorded by means of a heparinized catheter (PE50) introduced into the left carotid of the animal, and connected to a pressure calculator (Gould, Pressure Processor) by means of a Gould pressure sensor,
A catheter is introduced into the right jugular vein of the animal in order to allow the injection of the molecules to be studied.
The animal is placed under assisted respiration. A bilateral section of the pneumogastric nerves is carried out. The rat is then demedullated.
After a suitable period of stabilization, the study of the antagonism of the molecules vis- -vis angiotensin II (CIBA Hypertensin) is approached in the following manner:
1 - Three consecutive injections of angiotensin II (0.75 micrograms/kg) spaced 15 minutes apart permits a reproducible and stable pressure response to be obtained.
2 - While keeping a time interval of 15 minutes for the administration of angiotensin II, the molecules (0.01 to 10 mg/kg) are injected 5 minutes before the angiotensin II.
The pressure effects of angiotensin II in the presence of the antagonist are expressed as a percentage of the pressure effects of angiotensin II administered on its own. The dose which inhibits the studied effect by 50% is thus determined.
Each animal is considered to be its own control.

[3] = test system: angiotensin II (response of the isolated portal vein); assay: Antagonistic activity of angiotensin II on the isolated portal vein; conditions: portal vein of male Wistar rats; angiotensin II 3.10^-8 M; compound 15 minutes before; 37° C.; verapamil 1.10^-6 M; read-out: IC50 (dose which produces a 50% inhibition of the response to angiotensin)
Experimental: The portal vein of male Wistar rats (about 350 g) (IFFA Credo France) is removed after cervical dislocation and placed rapidly in a physiological solution (see below) at ambient temperature. A ring of about 1 mm is mounted in a bath with an isolation mechanism, containing 20 ml of the following physiological solution (composition in mM: NaCl 118.3 - KCl 4.7 - MgSO4 1.2 - KH2 PO4 1.2 - NaHCO3 25 - glucose 11.1 - CaCl2 2.5), the medium is maintained at 37° C. and oxygenated with an oxygen (95%), carbon dioxide (5%) mixture. The initial pressure imposed is 1 g, the rings are left at rest for 60 to 90 minutes. In order to avoid spontaneous contractions, verapamil is added to the incubation bath (1.10^-6 M).
At the end of the rest period angiotensin II (Ciba hypertensin) 3.10^-8 M is added to the incubation bath and left in contact with the preparation for one minute. This operation is repeated every 30 minutes, the tissue being washed 3 or 4 times between two stimulations by angiotensin. The compound to be studied is introduced into the bath 15 minutes before a new stimulation by angiotensin. Increasing concentrations of the product to be studied are used and the IC50 (dose which produces a 50% inhibition of the response to angiotensin) of the product to be studied is calculated, this is expressed in nanomoles.

| IC50 [1] | IC50 [3] | Compound | ED50 [2] |
| --- | --- | --- | --- |
|  | 13 nM | CCCCc1nc(SCC)c(C(=O)O)n1Cc1ccc(-c2ccccc2C(=O)O)cc1 [Example 6, 2-butyl-1-[[2'-carboxy-(1,1'-biphenyl)-4-yl]-methyl]-4-(ethylthio)-1H-imidazole-5-carboxylic acid] |  |
| 47 nM |  | CCCCc1nc(S(=O)(=O)c2ccccc2)c(C(=O)O)n1Cc1ccc(-c2ccccc2C(=O)O)cc1 [Example 26, 2-butyl-1-[[2'-carboxy-(1,1'-biphenyl)-4-yl]-methyl]-4-(phenylsulphonyl)-1H-imidazole-5-carboxylic acid] |  |
|  | 10 nM | CCCCc1nc(SCC)c(CO)n1Cc1ccc(-c2ccccc2C(=O)O)cc1 [Example 14, 4'-[[2-butyl-4-(ethylthio)-5-(hydroxymethyl)-1H-imidazol-1-yl]-methyl]-(1,1'-biphenyl)-2-carboxylic acid] | 0.78 mg/kg |
| 5.7 nM | 0.9 nM | CCCCc1nc(SCc2ccccc2)c(C(=O)O)n1Cc1ccc(-c2ccccc2C(=O)O)cc1 [Example 48, 2-butyl-1-[[2'-carboxy-(1,1'-biphenyl)-4-yl]-methyl]-4-[(phenylmethyl)-thio]-1H-imidazole-5-carboxylic acid] |  |
| 17 nM | 5 nM | CCCCc1nc(Sc2ccccc2)c(C(=O)O)n1Cc1ccc(-c2ccccc2C(=O)O)cc1 [Example 20, 2-butyl-1-[[2'-carboxy-(1,1'-biphenyl)-4-yl]-methyl]-4-(phenylthio)-1H-imidazole-5-carboxylic acid] |  |
| 3.6 nM | 0.56 nM | CCCCc1nc(SCc2ccc(OC)cc2)c(C(=O)O)n1Cc1ccc(-c2ccccc2C(=O)O)cc1 [Example 70] | 0.33 mg/kg |
| 10.2 nM |  | CCCCc1nc([S+]([O-])c2ccccc2)c(C(=O)O)n1Cc1ccc(-c2ccccc2C(=O)O)cc1 (stereo not drawn) [Example 28, 2-butyl-1-[[2'-carboxy-(1,1'-biphenyl)-4-yl]-methyl]-4-(phenylsulphinyl)-1H-imidazole-5-carboxylic acid] |  |
| 49 nM | 8 nM | CCCCc1nc(SC)c(C(=O)O)n1Cc1ccc(-c2ccccc2C(=O)O)cc1 [Example 22, 2-butyl-1-[[2'-carboxy-(1,1'-biphenyl)-4-yl]-methyl]-4-(methylthio)-1H-imidazole-5-carboxylic acid] | 0.47 mg/kg |
| 5.8 nM | 2 nM | CCCCc1nc(SCc2ccccc2)c(CO)n1Cc1ccc(-c2ccccc2C(=O)O)cc1 [Example 74] | 0.34 mg/kg |

More lines, now with the values behind:

| Compound | IC50 [1] | IC50 [3] | ED50 [2] |
| --- | --- | --- | --- |
| CCCCc1nc(Sc2ccccc2)c(C(=O)O)n1Cc1ccc(-c2ccccc2-c2nn[nH]n2)cc1 [Example 92] | 0.5 nM |  | 0.08 mg/kg |
| CCCCc1nc(SC)c(C(=O)OCOC(=O)C(C)(C)C)n1Cc1ccc(-c2ccccc2-c2nn[nH]n2)cc1 [Example 106] |  |  | 0.04 mg/kg |
| CCCCc1nc(S(C)(=O)=O)c(C(=O)O)n1Cc1ccc(-c2ccccc2-c2nn[nH]n2)cc1 [Example 84] | 0.8 nM |  |  |
| CCCCc1nc([S+]([O-])CC)c(C(=O)O)n1Cc1ccc(-c2ccccc2C(=O)O)cc1 (stereo not drawn) [Example 16, 2-butyl-1-[[2'-carboxy-(1,1'-biphenyl)-4-yl]-methyl]-4-(ethylsulphinyl)-1H-imidazole-5-carboxylic acid] |  |  | 0.29 mg/kg |
| CCCCc1nc(SC)c(C(=O)O)n1Cc1ccc(-c2ccccc2-c2nnn[nH]2)cc1 [Example 51, 2-butyl-4-(methylthio)-1-[[2'-(1H-tetrazol-5-yl)-(1,1'-biphenyl)-4-yl]-methyl]-1H-imidazole-5-carboxylic acid] | 1.9 nM | 0.14 nM | 0.054 mg/kg |
| CCCCc1nc(S(=O)(=O)CC)c(C(=O)O)n1Cc1ccc(-c2ccccc2C(=O)O)cc1 [Example 18, 2-butyl-1-[[2'-carboxy-(1,1'-biphenyl)-4-yl]-methyl]-4-(ethylsulphonyl)-1H-imidazole-5-carboxylic acid] |  |  | 0.79 mg/kg |
| CCCCc1nc(S(C)(=O)=O)c(C(=O)O)n1Cc1ccc(-c2ccccc2-c2nn[nH]n2)cc1 [Example 83] | 1.3 nM | 0.21 nM | 0.022 mg/kg |
